One assay concerns HFD-fed mice. The assay can be described thus: HFD obese mouse model with soybean extracts M1, OS and combinations (Example 7). It is filed as in vivo. The method, then:
Five mice per experimental group were fed HFD diet, comprising 42% calories from fat. The mice were administered the indicated extracts per os 3 times a week for three months, and then sacrificed. The mice weight, fasting glucose levels, ALT, serum triglycerides (TGs) and cholesterol were determined every 2 weeks. Glucose Tolerance Test was performed after 4 and 12 weeks. On sacrifice day, serum and a liver biopsy were collected for determination of serum insulin levels, liver TG and for H&E histological analysis.
After sacrifice, measurements of serum ALT and AST activities were carried out, and serum levels of IFN-γ, TNF-α and insulin were determined.
TGs were extracted from aliquots of snap-frozen livers using a modification of the Folch method. Hepatic TG content was assayed spectrophotometrically using a GPO-Trinder kit and was normalized to the protein content in the homogenate.
Plasma TG and total cholesterol were measured by a clinical chemistry analyzer, the Reflovet Plus machine.
Fasting glucose levels were measured after overnight (12 h) fasting. Serum glucose measurements were performed on tail-vein blood by a standard glucometer.
Mice underwent a GTT after overnight fasting. Glucose was administered orally (1.25 g/kg body weight). Serum glucose measurements were performed on tail-vein blood every 15 min for 3 h. Glucose levels were measured by a standard glucometer.
Serum insulin levels were determined using a commercially available ELISA kit (Mercodia), according to the manufacturer's instructions. Serum was collected from euthanized mice on the day of sacrifice (after 12 h fasting) and kept in −80° C. until analysis.
Serum levels of IFN-γ, TNF-α, and IL-6 were determined by “sandwich” ELISA using commercial kits according to the manufacturer's instructions.
Flow cytometry was performed following splenocyte and hepatic lymphocyte isolation using 1×10^6 lymphocytes in 100 μl PBS with 0.1% BSA. For surface staining, cells were incubated with fluorochrome-conjugated antibodies to the indicated cell surface markers at the recommended dilutions or with isotype control antibodies for 30 minutes at 4° C. The following cell surface anti-mouse antibodies were used: CD4/CD3-Pacific Blue, CD25/NK1.1-PE and CD8-FITC. Cells were then washed in PBS containing 1% BSA and fixed with fixation buffer for another 50 minutes. For intracellular staining of Foxp3, fixed cells were permeabilized with Foxp3 staining buffer. Cells were then stained with PE-Cy7-conjugated antibodies to Foxp3, washed twice and resuspended in 250 μl of PBS containing 1% BSA and kept at 4° C. One million stained cells in 250 μl of PBS containing 1% BSA were subsequently analyzed using a FACS LSR II instrument with FCS express V.3 software. Only live cells were counted, and background fluorescence from non-antibody-treated lymphocytes was subtracted.
A HFD obese mouse model was therefore used to assess the hepatoprotective action of the soybean extracts M1, OS and their combinations. Young (6-7 weeks old) male C57BL/6 mice (5 mice per experimental group) were fed HFD diet ad libitum for 12 weeks. The mice were administered the indicated soybean extracts or combinations per os 3 times a week for the duration of the experiment. After 12 weeks, the mice were sacrificed. During the experiment the mice weight, fasting glucose level, ALT, serum triglycerides (TGs) and cholesterol were measured every 2 weeks, and glucose tolerance test was carried out after the fourth and twelfth weeks. On sacrifice day, serum samples and livers were collected. Serum TNF-α and insulin were determined, hepatic TG were measured and a liver section stained with H&E was prepared and analyzed. A FACS analysis of splenic T regulatory and NKT cells was also performed.

In assay [1] the test system is ConA-challenged C57BL-6 mice. The assay can be described thus: ConA-induced hepatotoxicity with soybean-derived extracts (Example 6). It is filed as in vivo. The settings on record: combinations 1:1, especially 0.3 and 3 μg per mouse. The protocol:
Either two (Example 1 (A)) or three (Example 1 (B)) groups of mice (10 mice per group) were studied. ConA was dissolved in 50 mM Tris (pH 7), 150 mM NaCl, and 4 mM CaCl2. To induce autoimmune hepatitis, mice were injected i.v. with 20 mg/kg ConA. Control mice were injected with PBS. A specified dosage of […] or vehicle was administered to the mice orally […] before (Example 1 (A)) or 30 min after (Example 1 (B)) they had received an injection of ConA. The mice were sacrificed 16 h (Example 1 (A)) or 17 h (Example 1 (B)) later. For Example 4 (ConA challenge in different […] extracts), six groups of 4-5 11-12 weeks old male C57BL/6 mice were treated per os for three days with extracts as show in Table 4. The mice were injected i.v. (tail vein) 500 μg of ConA, (20 mg/kg body weight) and sacrificed 14 h later. After sacrifice measurements of serum IFN-γ was carried out using ELISA. […] Serum ALT and AST activities were determined and serum levels of IFN-γ and TNF-α were measured. […] Serum levels of IFN-γ, TNF-α, and IL-6 were determined by “sandwich” ELISA using commercial kits according to the manufacturer's instructions. […] Serum ALT and AST activities were determined and serum levels of IFN-γ and TNF-α were measured.

The values below come from patent US20130202724A1, “SOYBEAN EXTRACTS FOR THE TREATMENT OF HEPATIC DISORDERS” (Hadasit Medical Research Services and Development Ltd., priority 2010, published 2013).

Regarding glucosylceramide [GC], in the assay with HFD-fed mice (HFD model, combinations 1:1, 0.3 μg and 3 μg per mouse), the “effectiveness over all tested parameters, summary” value is given as “effective but not in all tested parameters”. Besides, the fasting glucose levels entry in the assay with HFD-fed mice (M1/OS mixtures (both doses), GC 25 μg, vs control mice) was “significantly lower”. For the same substance, the GTT results in the assay on HFD-fed mice (after 12 weeks in HFD, vs control and OS-treated mice) is “marked improvement”. Besides, in the assay with HFD-fed mice (both M1/OS mixture doses (0.3 μg each and 3 μg each), GC 25 μg), the “liver lipid accumulation (H&E stained liver sections)” value is “striking improvement”. For the same substance, the “hepatic TG levels” value with HFD-fed mice (single agents (M1 3 μg, GC 25 μg), week 12, vs control mice) was “no clear effect”. Besides, the fasting insulin levels result with HFD-fed mice (single agents (OS 3 μg, GC 25 μg, M1 3 μg), week 12) was “lowest”. In assay [1], the “hepatic protection (liver enzymes and serum IFN-γ and TNF-α), summary” value is “significant decrease”.
